Experimental data published in patent publication US6465625B1, “Taxol derivatives” (Albany Molecular Research, Inc., priority 1995, dated 2002).

Tests used:
[1] = solubility in water; details: for solubility greater than that of taxol: relative to taxol, rounded figures of b160; for increase of water solubility relative to taxol: relative to taxol (<4 μg/ml)
[2] = tested on: MOLT-4 cells, a lymphoblastic leukemia cell line; assay: cytotoxicity against MOLT-4 cells (trypan blue exclusion, cell counts after 72 h); format: cell-based; details: 100 nM to 0.1 nM, 0.5% DMSO
Method: (§1) 18. To verify their potential as prodrugs, two taxol esters, taxol 2′-chloroacetate (2) and taxol 2′-acrylate (3), were tested for cytotoxicity against HL-60 cells, a promyelocytic leukemia cell line, and MOLT-4 cells, a lymphoblastic leukemia cell line.^20 Both derivatives had IC50 values about ten times higher than that of taxol for each cell line.
(§2) 20. Cells were seeded in 96-well plates at densities of 30,000 cells/well and grown in RPMI-1640 medium containing 10% bovine calf serum at 37° C. for 24 h. The medium was then replaced with fresh medium containing the taxol esters (excluding taxol, which had been removed by preparative TLC) dissolved in DMSO at final concentrations ranging from 100 nM to 0.1 nM. The final concentration of DMSO in the cell medium was 0.5%. After 72 h, samples were removed for cell counts. Total cell number and viability were determined by trypan blue exclusion and manual cell counting on a hemacytometer.

[3] = tested on: HL-60 cells, a promyelocytic leukemia cell line; assay: cytotoxicity against HL-60 cells (trypan blue exclusion, cell counts after 72 h); format: cell-based; details: 100 nM to 0.1 nM, 0.5% DMSO
Method: as §1, §2

## CC(=O)O[C@H]1C(=O)[C@@]2(C)C([C@H](OC(=O)c3ccccc3)[C@]3(O)C[C@H](OC(=O)[C@H](OC(=O)CCCCC(=O)O)[C@@H](NC(=O)c4ccccc4)c4ccccc4)C(C)=C1C3(C)C)[C@]1(OC(C)=O)CO[C@@H]1C[C@@H]2O (stereo partly drawn) [taxol 2′-adipic acid, Taxol 2′-adipic acid]
[1]
  solubility greater than that of taxol: 1,700 times
[1]; water
  increase of water solubility relative to taxol: 1625 fold

## CC(=O)OC1C(=O)C2(C)C(O)CC3OCC3(OC(C)=O)C2C(OC(=O)c2ccccc2)C2(O)CC(OC(=O)C(OC(=O)CCl)C(NC(=O)c3ccccc3)c3ccccc3)C(C)=C1C2(C)C (stereo not drawn) [compound 2, taxol 2′-chloroacetate]
[2]
  IC50 relative to that of taxol: about ten
[3]
  IC50 relative to that of taxol: about ten

## CC(=O)O[C@H]1C(=O)[C@@]2(C)C([C@H](OC(=O)c3ccccc3)[C@]3(O)C[C@H](OC(=O)[C@H](OC(=O)CCCCC(=O)OCC4OC(O)C(O)C(O)C4O)[C@@H](NC(=O)c4ccccc4)c4ccccc4)C(C)=C1C3(C)C)[C@]1(OC(C)=O)CO[C@@H]1C[C@@H]2O (stereo partly drawn) [taxol 2′-(adipoyl)glucose, Taxol 2′-(adipoyl) glucose]
[1]
  solubility greater than that of taxol: 60 times
[1]; water
  increase of water solubility relative to taxol: 58 fold

## C=CC(=O)OC(C(=O)OC1CC2(O)C(OC(=O)c3ccccc3)C3C4(OC(C)=O)COC4CC(O)C3(C)C(=O)C(OC(C)=O)C(=C1C)C2(C)C)C(NC(=O)c1ccccc1)c1ccccc1 (stereo not drawn) [compound 3, Taxol 2′-acrylate]
[2]
  IC50 relative to that of taxol: about ten
[3]
  IC50 relative to that of taxol: about ten

## CC(=O)O[C@H]1C(=O)[C@@]2(C)[C@H]([C@H](OC(=O)c3ccccc3)[C@]3(O)C[C@H](OC(=O)[C@H](O)[C@@H](NC(=O)c4ccccc4)c4ccccc4)C(C)=C1C3(C)C)[C@]1(OC(C)=O)CO[C@@H]1C[C@@H]2O [taxol]
[1]; water
  solubility: < 4 µg/mL
